The record followed here is patent US20250171420A1 (Monte Rosa Therapeutics, Inc., priority 2022, published 2025).

Series [1] has as its system GP2D cell line. The experiment in a line: Growth inhibition, CyQUANT Direct Cell Proliferation Assay, GP2D. The settings on record: GP2D, 120 to 168 hours; read-out: GP2D GI50. The format is cell-based. The method, boiled down: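 Cells seeded 300 to 1,800 per well, day-0 CyQUANT Direct read after overnight attachment; 9-point 3-fold dilutions from 30 μM top concentration, 120 to 168 h exposure, 0.3% DMSO control. Fluorescence Ex/Em 480/520 nm; growth inhibition normalised to day-0 and untreated day-N signals, GI50 at 50% of untreated control.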

A short description of series [2]: Oral pharmacokinetics in male BALB/c mice. The format is in vivo. The settings on record: mouse, PO 10 mg/kg, plasma, mean ± SD. As to the method:
Male BALB/c mice were administered a discrete, oral (PO) dose of Compound 288, Compound 335, Compound 102, or Compound 303 at 10 mg/kg; all mice were fasted except for mice that were dosed with Compound 288. Male BALB/c mice were fasted overnight and administered a cassette dose, PO dose of Compound 303 and other compounds at 5 mg/kg per compound.
Blood samples were collected serially from three animals/time-point following PO administration of the test compounds to the mice and placed in tubes containing K2EDTA. The blood samples were centrifuged, and the aliquots of the resulting plasma stored frozen at −60 to −90° C.
The plasma samples were analyzed by LC-MS/MS to determine concentrations of the test compounds. The in-life portion of the study and the bioanalysis of plasma samples was conducted at Wuxi (China).
The pharmacokinetic parameters for the tested compounds were calculated by non-compartmental analysis using Phoenix WinNonlin software.

The target of series [3] is CRBN/DDB1 (Homo sapiens, UniProt Q96SW2). Put plainly: HTRF binding assay (displacement of Cy5-thalidomide probe from CRBN/DDB1). Conditions: CRBN/DDB1 2.5 nM, Cy5-Thalidomide 100 nM, 30 min; geometric mean; read-out: HTRF_Thali_Disp_DR_geo_IC50. The method, boiled down: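 Compounds in a 10-point threefold dilution series were incubated 30 min at ambient temperature with 2.5 nM CRBN/DDB1, 100 nM Cy5-thalidomide probe and terbium anti-His donor (HEPES/NaCl/TCEP/EDTA/Tween20 buffer). IC50 came from 4-parameter fits of the 665/620 nm HTRF ratio; Ki used Cheng-Prusoff on geometric-mean IC50.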
CRBN/DDB1, sequence (Q96SW2 whole entry, species assumed): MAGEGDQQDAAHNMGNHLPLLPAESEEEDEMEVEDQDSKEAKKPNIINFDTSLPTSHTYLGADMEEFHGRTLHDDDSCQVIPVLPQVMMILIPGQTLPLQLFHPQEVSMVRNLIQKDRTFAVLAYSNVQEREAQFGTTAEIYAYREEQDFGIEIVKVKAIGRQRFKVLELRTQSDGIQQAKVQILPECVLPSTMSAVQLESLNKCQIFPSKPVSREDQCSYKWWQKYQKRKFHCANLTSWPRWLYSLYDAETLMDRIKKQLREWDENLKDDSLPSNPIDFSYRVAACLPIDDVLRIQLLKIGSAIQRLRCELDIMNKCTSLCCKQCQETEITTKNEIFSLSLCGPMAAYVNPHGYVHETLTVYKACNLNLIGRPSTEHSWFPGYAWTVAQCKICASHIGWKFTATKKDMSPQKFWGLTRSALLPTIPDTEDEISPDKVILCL
CRBN/DDB1, sequence (Q16531 whole entry partner, species assumed): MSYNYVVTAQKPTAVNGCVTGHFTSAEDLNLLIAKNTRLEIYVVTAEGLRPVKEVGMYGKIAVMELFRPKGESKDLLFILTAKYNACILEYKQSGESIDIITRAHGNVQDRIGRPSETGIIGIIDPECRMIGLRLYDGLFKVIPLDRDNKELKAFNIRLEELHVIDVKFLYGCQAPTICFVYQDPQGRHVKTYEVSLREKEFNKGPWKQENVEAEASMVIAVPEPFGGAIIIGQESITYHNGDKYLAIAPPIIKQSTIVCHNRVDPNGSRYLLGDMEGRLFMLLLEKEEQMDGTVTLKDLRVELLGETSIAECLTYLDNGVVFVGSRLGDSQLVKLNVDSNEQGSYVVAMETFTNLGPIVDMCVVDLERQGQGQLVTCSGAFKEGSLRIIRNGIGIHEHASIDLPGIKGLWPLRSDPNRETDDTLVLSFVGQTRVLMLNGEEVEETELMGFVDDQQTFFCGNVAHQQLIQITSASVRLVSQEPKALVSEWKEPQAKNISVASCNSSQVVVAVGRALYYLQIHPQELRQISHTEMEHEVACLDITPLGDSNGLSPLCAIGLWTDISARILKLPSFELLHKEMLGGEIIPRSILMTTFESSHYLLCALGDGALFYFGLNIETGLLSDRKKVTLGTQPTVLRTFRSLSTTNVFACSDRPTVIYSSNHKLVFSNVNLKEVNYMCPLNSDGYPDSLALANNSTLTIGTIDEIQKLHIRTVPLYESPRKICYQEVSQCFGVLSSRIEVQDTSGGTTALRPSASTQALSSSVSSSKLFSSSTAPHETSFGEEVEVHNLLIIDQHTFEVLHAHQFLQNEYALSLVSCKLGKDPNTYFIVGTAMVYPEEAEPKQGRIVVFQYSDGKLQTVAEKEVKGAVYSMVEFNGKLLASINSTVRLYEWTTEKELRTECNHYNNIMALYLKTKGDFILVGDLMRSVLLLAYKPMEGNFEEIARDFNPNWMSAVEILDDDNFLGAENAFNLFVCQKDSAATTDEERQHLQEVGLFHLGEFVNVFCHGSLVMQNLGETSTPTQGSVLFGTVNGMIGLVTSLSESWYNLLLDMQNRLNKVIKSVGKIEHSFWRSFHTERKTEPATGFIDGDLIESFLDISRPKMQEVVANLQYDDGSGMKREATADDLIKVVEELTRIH

With `C[C@@H]1Cc2ccccc2N1C(=O)Nc1ccc2c(c1)CN(C1CCC(=O)NC1=O)C2=O` (stereo partly drawn) [Compound 102, (2R)—N-(2-(2,6-dioxopiperidin-3-yl)-1-oxoisoindolin-5-yl)-2-methylindoline-1-carboxamide], the GI50 in series [1] lay within 100 to 1000 nM. In series [2], the area under the curve (AUC) amounted to 1040 ± 245 ng·h/mL, the AUC(0-t) was 889 ± 218 ng·h/mL, the concentration peaked (Cmax) at 361 ± 142 ng/mL and the time of peak concentration (Tmax) turned out to be 1.33 ± 0.58 h. Besides, the IC50 in series [3] lay in the range of 100 to 1000 nM.
